Measurements: ChEMBL document CHEMBL5724914, “Linking interpersonal differences in gut microbiota composition and drug biotransformation activity” (2024)

Assay: (§1) The drug is tested on WLS-027 corresponding to human gut metagenome with ENA study accession number: PRJEB37062 and ENA sample accession number: ERS12561744 for biotransformation under anaerobic condition. The drug concentrations were measured over 9 timepoints collected between 0 and 24 hours of incubation by liquid-chromatography-coupled mass spectrometry (LC–MS)
Settings: 2 µM
Further: call rule not given here.

Bacterial Biotransformation	SMILES
Compound metabolized	Nc1nc2ccc(OC(F)(F)F)cc2s1 [RILUZOLE]
Compound NOT metabolized	CC(C)NCC(O)c1ccc(NS(C)(=O)=O)cc1 (stereo not given) [SOTALOL]
Compound metabolized	CCN1CCCC1CNC(=O)c1cc(S(N)(=O)=O)ccc1OC (stereo not given) [SULPIRIDE]

SMILES	Bacterial Biotransformation
CC(=O)CC(c1ccccc1)c1c(O)c2ccccc2oc1=O (stereo not given) [WARFARIN]	Compound metabolized

Assay: as §1, with “Z-006” for “WLS-027”, “mouse” for “human”, “ERS12561806” for “ERS12561744”
Settings: 2 µM

Bacterial Biotransformation	SMILES
Compound NOT metabolized	Nc1nc2ccc(OC(F)(F)F)cc2s1 [RILUZOLE]
Compound NOT metabolized	CC(C)NCC(O)c1ccc(NS(C)(=O)=O)cc1 (stereo not given) [SOTALOL]
Compound NOT metabolized	CCN1CCCC1CNC(=O)c1cc(S(N)(=O)=O)ccc1OC (stereo not given) [SULPIRIDE]

SMILES	Bacterial Biotransformation
CC(=O)CC(c1ccccc1)c1c(O)c2ccccc2oc1=O (stereo not given) [WARFARIN]	Compound metabolized

Settings: human gut metagenome, 24 h, 2 µM

Bacterial Biotransformation	SMILES
Compound NOT metabolized	Nc1nc2ccc(OC(F)(F)F)cc2s1 [RILUZOLE]
Compound NOT metabolized	CC(C)NCC(O)c1ccc(NS(C)(=O)=O)cc1 (stereo not given) [SOTALOL]
Compound NOT metabolized	CCN1CCCC1CNC(=O)c1cc(S(N)(=O)=O)ccc1OC (stereo not given) [SULPIRIDE]

SMILES	Bacterial Biotransformation
CC(=O)CC(c1ccccc1)c1c(O)c2ccccc2oc1=O (stereo not given) [WARFARIN]	Compound metabolized

Settings: human gut metagenome, 24 h, 2 µM
Remark: another data set of the same source

Bacterial Biotransformation	SMILES
Compound metabolized	Nc1nc2ccc(OC(F)(F)F)cc2s1 [RILUZOLE]
Compound NOT metabolized	CC(C)NCC(O)c1ccc(NS(C)(=O)=O)cc1 (stereo not given) [SOTALOL]
Compound metabolized	CCN1CCCC1CNC(=O)c1cc(S(N)(=O)=O)ccc1OC (stereo not given) [SULPIRIDE]

SMILES	Bacterial Biotransformation
CC(=O)CC(c1ccccc1)c1c(O)c2ccccc2oc1=O (stereo not given) [WARFARIN]	Compound metabolized

Assay: as §1, with “Z-023” for “WLS-027”, “to” for “to human gut”, “ERS12561822” for “ERS12561744”
Settings: 2 µM

Bacterial Biotransformation	SMILES
Compound metabolized	Nc1nc2ccc(OC(F)(F)F)cc2s1 [RILUZOLE]
Compound NOT metabolized	CC(C)NCC(O)c1ccc(NS(C)(=O)=O)cc1 (stereo not given) [SOTALOL]
Compound NOT metabolized	CCN1CCCC1CNC(=O)c1cc(S(N)(=O)=O)ccc1OC (stereo not given) [SULPIRIDE]

SMILES	Bacterial Biotransformation
CC(=O)CC(c1ccccc1)c1c(O)c2ccccc2oc1=O (stereo not given) [WARFARIN]	Compound metabolized

Assay: as §1, with “Z-021” for “WLS-027”, “to” for “to human gut”, “ERS12561820” for “ERS12561744”
Settings: 2 µM

Bacterial Biotransformation	SMILES
Compound metabolized	Nc1nc2ccc(OC(F)(F)F)cc2s1 [RILUZOLE]
Compound NOT metabolized	CC(C)NCC(O)c1ccc(NS(C)(=O)=O)cc1 (stereo not given) [SOTALOL]
Compound NOT metabolized	CCN1CCCC1CNC(=O)c1cc(S(N)(=O)=O)ccc1OC (stereo not given) [SULPIRIDE]

SMILES	Bacterial Biotransformation
CC(=O)CC(c1ccccc1)c1c(O)c2ccccc2oc1=O (stereo not given) [WARFARIN]	Compound NOT metabolized

Settings: human gut metagenome, 24 h, 2 µM
Remark: another data set of the same source

Bacterial Biotransformation	SMILES
Compound NOT metabolized	Nc1nc2ccc(OC(F)(F)F)cc2s1 [RILUZOLE]
Compound NOT metabolized	CC(C)NCC(O)c1ccc(NS(C)(=O)=O)cc1 (stereo not given) [SOTALOL]
Compound NOT metabolized	CCN1CCCC1CNC(=O)c1cc(S(N)(=O)=O)ccc1OC (stereo not given) [SULPIRIDE]

SMILES	Bacterial Biotransformation
CC(=O)CC(c1ccccc1)c1c(O)c2ccccc2oc1=O (stereo not given) [WARFARIN]	Compound metabolized

Assay: as §1, with “Z-011” for “WLS-027”, “mouse” for “human”, “ERS12561811” for “ERS12561744”
Settings: 2 µM

Bacterial Biotransformation	SMILES
Compound metabolized	Nc1nc2ccc(OC(F)(F)F)cc2s1 [RILUZOLE]
Compound NOT metabolized	CC(C)NCC(O)c1ccc(NS(C)(=O)=O)cc1 (stereo not given) [SOTALOL]
Compound metabolized	CCN1CCCC1CNC(=O)c1cc(S(N)(=O)=O)ccc1OC (stereo not given) [SULPIRIDE]

SMILES	Bacterial Biotransformation
CC(=O)CC(c1ccccc1)c1c(O)c2ccccc2oc1=O (stereo not given) [WARFARIN]	Compound NOT metabolized

Assay: as §1, with “WLS-039” for “WLS-027”, “ERS12561746” for “ERS12561744”
Settings: 2 µM

Bacterial Biotransformation	SMILES
Compound metabolized	Nc1nc2ccc(OC(F)(F)F)cc2s1 [RILUZOLE]
Compound NOT metabolized	CC(C)NCC(O)c1ccc(NS(C)(=O)=O)cc1 (stereo not given) [SOTALOL]
Compound NOT metabolized	CCN1CCCC1CNC(=O)c1cc(S(N)(=O)=O)ccc1OC (stereo not given) [SULPIRIDE]

SMILES	Bacterial Biotransformation
CC(=O)CC(c1ccccc1)c1c(O)c2ccccc2oc1=O (stereo not given) [WARFARIN]	Compound NOT metabolized

Assay: as §1, with “Z-022” for “WLS-027”, “mouse” for “human”, “ERS12561821” for “ERS12561744”
Settings: 2 µM

Bacterial Biotransformation	SMILES
Compound metabolized	Nc1nc2ccc(OC(F)(F)F)cc2s1 [RILUZOLE]
Compound NOT metabolized	CC(C)NCC(O)c1ccc(NS(C)(=O)=O)cc1 (stereo not given) [SOTALOL]
Compound NOT metabolized	CCN1CCCC1CNC(=O)c1cc(S(N)(=O)=O)ccc1OC (stereo not given) [SULPIRIDE]

SMILES	Bacterial Biotransformation
CC(=O)CC(c1ccccc1)c1c(O)c2ccccc2oc1=O (stereo not given) [WARFARIN]	Compound metabolized

Settings: human gut metagenome, 24 h, 2 µM
Remark: another data set of the same source

Bacterial Biotransformation	SMILES
Compound NOT metabolized	Nc1nc2ccc(OC(F)(F)F)cc2s1 [RILUZOLE]
Compound NOT metabolized	CC(C)NCC(O)c1ccc(NS(C)(=O)=O)cc1 (stereo not given) [SOTALOL]
Compound NOT metabolized	CCN1CCCC1CNC(=O)c1cc(S(N)(=O)=O)ccc1OC (stereo not given) [SULPIRIDE]

SMILES	Bacterial Biotransformation
CC(=O)CC(c1ccccc1)c1c(O)c2ccccc2oc1=O (stereo not given) [WARFARIN]	Compound NOT metabolized

Settings: human gut metagenome, 24 h, 2 µM
Remark: another data set of the same source

Bacterial Biotransformation	SMILES
Compound NOT metabolized	Nc1nc2ccc(OC(F)(F)F)cc2s1 [RILUZOLE]
Compound NOT metabolized	CC(C)NCC(O)c1ccc(NS(C)(=O)=O)cc1 (stereo not given) [SOTALOL]
Compound NOT metabolized	CCN1CCCC1CNC(=O)c1cc(S(N)(=O)=O)ccc1OC (stereo not given) [SULPIRIDE]

SMILES	Bacterial Biotransformation
CC(=O)CC(c1ccccc1)c1c(O)c2ccccc2oc1=O (stereo not given) [WARFARIN]	Compound metabolized

Settings: human gut metagenome, 24 h, 2 µM
Remark: another data set of the same source

Bacterial Biotransformation	SMILES
Compound metabolized	Nc1nc2ccc(OC(F)(F)F)cc2s1 [RILUZOLE]
Compound NOT metabolized	CC(C)NCC(O)c1ccc(NS(C)(=O)=O)cc1 (stereo not given) [SOTALOL]
Compound metabolized	CCN1CCCC1CNC(=O)c1cc(S(N)(=O)=O)ccc1OC (stereo not given) [SULPIRIDE]

SMILES	Bacterial Biotransformation
CC(=O)CC(c1ccccc1)c1c(O)c2ccccc2oc1=O (stereo not given) [WARFARIN]	Compound metabolized

Assay: as §1, with “WLS-010” for “WLS-027”, “ERS12561743” for “ERS12561744”
Settings: 2 µM

Bacterial Biotransformation	SMILES
Compound metabolized	Nc1nc2ccc(OC(F)(F)F)cc2s1 [RILUZOLE]
Compound NOT metabolized	CC(C)NCC(O)c1ccc(NS(C)(=O)=O)cc1 (stereo not given) [SOTALOL]
Compound metabolized	CCN1CCCC1CNC(=O)c1cc(S(N)(=O)=O)ccc1OC (stereo not given) [SULPIRIDE]

SMILES	Bacterial Biotransformation
CC(=O)CC(c1ccccc1)c1c(O)c2ccccc2oc1=O (stereo not given) [WARFARIN]	Compound metabolized

Settings: human gut metagenome, 24 h, 2 µM
Remark: another data set of the same source

Bacterial Biotransformation	SMILES
Compound NOT metabolized	Nc1nc2ccc(OC(F)(F)F)cc2s1 [RILUZOLE]
Compound NOT metabolized	CC(C)NCC(O)c1ccc(NS(C)(=O)=O)cc1 (stereo not given) [SOTALOL]
Compound NOT metabolized	CCN1CCCC1CNC(=O)c1cc(S(N)(=O)=O)ccc1OC (stereo not given) [SULPIRIDE]

SMILES	Bacterial Biotransformation
CC(=O)CC(c1ccccc1)c1c(O)c2ccccc2oc1=O (stereo not given) [WARFARIN]	Compound NOT metabolized

Assay: as §1, with “WLS-098” for “WLS-027”, “ERS12561754” for “ERS12561744”
Settings: 2 µM

Bacterial Biotransformation	SMILES
Compound metabolized	Nc1nc2ccc(OC(F)(F)F)cc2s1 [RILUZOLE]
Compound NOT metabolized	CC(C)NCC(O)c1ccc(NS(C)(=O)=O)cc1 (stereo not given) [SOTALOL]
Compound metabolized	CCN1CCCC1CNC(=O)c1cc(S(N)(=O)=O)ccc1OC (stereo not given) [SULPIRIDE]

SMILES	Bacterial Biotransformation
CC(=O)CC(c1ccccc1)c1c(O)c2ccccc2oc1=O (stereo not given) [WARFARIN]	Compound metabolized

Settings: human gut metagenome, 24 h, 2 µM
Remark: another data set of the same source

Bacterial Biotransformation	SMILES
Compound metabolized	Nc1nc2ccc(OC(F)(F)F)cc2s1 [RILUZOLE]
Compound NOT metabolized	CC(C)NCC(O)c1ccc(NS(C)(=O)=O)cc1 (stereo not given) [SOTALOL]
Compound metabolized	CCN1CCCC1CNC(=O)c1cc(S(N)(=O)=O)ccc1OC (stereo not given) [SULPIRIDE]

SMILES	Bacterial Biotransformation
CC(=O)CC(c1ccccc1)c1c(O)c2ccccc2oc1=O (stereo not given) [WARFARIN]	Compound metabolized

Assay: as §1, with “Z-025” for “WLS-027”, “rabbit” for “human”, “ERS12561824” for “ERS12561744”
Settings: 2 µM

Bacterial Biotransformation	SMILES
Compound NOT metabolized	Nc1nc2ccc(OC(F)(F)F)cc2s1 [RILUZOLE]
Compound NOT metabolized	CC(C)NCC(O)c1ccc(NS(C)(=O)=O)cc1 (stereo not given) [SOTALOL]
Compound NOT metabolized	CCN1CCCC1CNC(=O)c1cc(S(N)(=O)=O)ccc1OC (stereo not given) [SULPIRIDE]

SMILES	Bacterial Biotransformation
CC(=O)CC(c1ccccc1)c1c(O)c2ccccc2oc1=O (stereo not given) [WARFARIN]	Compound metabolized

Settings: human gut metagenome, 24 h, 2 µM
Remark: another data set of the same source

Bacterial Biotransformation	SMILES
Compound metabolized	Nc1nc2ccc(OC(F)(F)F)cc2s1 [RILUZOLE]
Compound NOT metabolized	CC(C)NCC(O)c1ccc(NS(C)(=O)=O)cc1 (stereo not given) [SOTALOL]
Compound metabolized	CCN1CCCC1CNC(=O)c1cc(S(N)(=O)=O)ccc1OC (stereo not given) [SULPIRIDE]

SMILES	Bacterial Biotransformation
CC(=O)CC(c1ccccc1)c1c(O)c2ccccc2oc1=O (stereo not given) [WARFARIN]	Compound metabolized

Assay: as §1, with “WLS-052” for “WLS-027”, “ERS12561747” for “ERS12561744”
Settings: 2 µM

Bacterial Biotransformation	SMILES
Compound metabolized	Nc1nc2ccc(OC(F)(F)F)cc2s1 [RILUZOLE]
Compound NOT metabolized	CC(C)NCC(O)c1ccc(NS(C)(=O)=O)cc1 (stereo not given) [SOTALOL]
Compound NOT metabolized	CCN1CCCC1CNC(=O)c1cc(S(N)(=O)=O)ccc1OC (stereo not given) [SULPIRIDE]

SMILES	Bacterial Biotransformation
CC(=O)CC(c1ccccc1)c1c(O)c2ccccc2oc1=O (stereo not given) [WARFARIN]	Compound metabolized
